From article PMC9112895, “Selective Inhibition of Plasmodium falciparum ATPase 6 by Artemisinins and Identification of New Classes of Inhibitors after Expression in Yeast” (Antimicrobial Agents and Chemotherapy, 2022)

Molecular target: T1, A623E/S769N PfATP6 (Plasmodium falciparum, UniProt Q08853, A623E/S769N)
T1 construct: expressed in transfected cells; host or cells: Saccharomyces cerevisiae K667-derived strain
T1 sequence (Q08853 1-1228 A623E/S769N): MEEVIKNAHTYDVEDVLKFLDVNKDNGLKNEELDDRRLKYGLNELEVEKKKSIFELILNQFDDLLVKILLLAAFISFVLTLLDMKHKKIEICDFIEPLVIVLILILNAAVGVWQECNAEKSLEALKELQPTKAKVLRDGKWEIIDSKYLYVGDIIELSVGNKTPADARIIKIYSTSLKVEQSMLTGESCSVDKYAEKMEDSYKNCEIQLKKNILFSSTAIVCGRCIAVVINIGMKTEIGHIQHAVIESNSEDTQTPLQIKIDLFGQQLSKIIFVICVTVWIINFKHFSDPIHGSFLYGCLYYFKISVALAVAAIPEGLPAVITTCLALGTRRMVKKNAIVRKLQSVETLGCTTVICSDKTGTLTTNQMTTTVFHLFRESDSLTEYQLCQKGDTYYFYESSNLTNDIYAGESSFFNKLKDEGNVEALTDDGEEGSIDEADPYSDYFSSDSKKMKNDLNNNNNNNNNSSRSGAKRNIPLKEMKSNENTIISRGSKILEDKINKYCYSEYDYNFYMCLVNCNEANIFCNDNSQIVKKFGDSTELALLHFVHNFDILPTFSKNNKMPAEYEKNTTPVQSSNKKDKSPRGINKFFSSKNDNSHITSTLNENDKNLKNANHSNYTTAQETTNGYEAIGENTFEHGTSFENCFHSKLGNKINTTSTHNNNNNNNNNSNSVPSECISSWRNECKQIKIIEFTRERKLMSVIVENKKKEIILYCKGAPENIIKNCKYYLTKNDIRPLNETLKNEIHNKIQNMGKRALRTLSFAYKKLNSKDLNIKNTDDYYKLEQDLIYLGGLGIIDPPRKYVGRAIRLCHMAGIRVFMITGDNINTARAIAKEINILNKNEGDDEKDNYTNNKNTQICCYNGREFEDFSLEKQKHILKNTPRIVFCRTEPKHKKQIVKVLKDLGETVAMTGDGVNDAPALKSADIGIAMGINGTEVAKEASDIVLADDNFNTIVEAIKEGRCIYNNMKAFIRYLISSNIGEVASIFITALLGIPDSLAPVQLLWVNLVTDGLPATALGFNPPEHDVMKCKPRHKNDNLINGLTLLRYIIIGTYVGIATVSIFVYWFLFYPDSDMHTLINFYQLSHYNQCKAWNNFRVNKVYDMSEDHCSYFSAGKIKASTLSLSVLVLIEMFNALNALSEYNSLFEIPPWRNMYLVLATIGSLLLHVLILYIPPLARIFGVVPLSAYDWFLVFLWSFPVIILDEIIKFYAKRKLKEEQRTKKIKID
Test: Yeast whole-cell assay, PfATP6 A623E/S769N double mutant
Type: cell-based
Conditions: read-out: IC50 (mean ± SD)
Description: Yeast transformations were performed using the method described by Gietz and Schiestl ([48]), and transformants were selected by an uracil auxotrophic marker. Transformations were confirmed by colony PCR. Both K667 and K667Δpdr5::HIS were transformed with the following plasmids: pUGpd plasmid as a vector-only control (derived from pRS316 [49]); br434 plasmid (derived from pRS316 [50]) containing the SERCA1a coding region from rabbit skeletal fast-twitch muscle (pbr434-SERCA1a); and pUGpd containing the yeast-optimized coding region of PfATP6 from Plasmodium falciparum (pUGpd-PfATP6). Site-directed mutagenesis was performed on the SERCA1a coding region to produce the mutation E255L in the protein. Mutations were also introduced into the PfATP6 coding region to produce mutations L263E, A623E, and S769N and the double mutation A623E/S769N ([13]).
The screening assay used here was developed from the protocol used by Pulcini et al. ([13]). […] The optimal calcium concentration was periodically monitored and, if necessary, adjusted using a calcium concentration range of 10 to 30 mM. […] The yeast growth was estimated from the absorbance at 620 nm in a Tecan plate reader. […] The data collected were analyzed using GraphPad Prism v9.0 (GraphPad software, San Diego, CA, U.S.A).

## CC(=O)C1=C(O)[C@@H]2[C@H]3c4c[nH]c5cccc(c45)C[C@H]3C(C)(C)N2C1=O [CPA, cyclopiazonic acid]
  IC50: 6.61 µM
